Tests used:
[1] = Acute toxicity, LD50 by oral administration; details: in vivo, mouse
Ehrlich's tumor cells = experiment: Carcinostatic activity in ddY mice subcutaneously inoculated with Ehrlich's tumor cells; assay type: in vivo; details: for Weight of tumor tissues in the sample group (S) / Ratio of S/C: 14 days after inoculation; for Weight of tumor tissues in the sample group (S) / Toxicity, ratio of died mice / Ratio of S/C: 1 mg daily intraabdominal injection; for Weight of tumor tissues in the sample group (S) / Toxicity, ratio of died mice: dosage period 10 days (I, IV) or 7 days (XI, VI, X); for Evaluation: based on the ratios of S/C in percentages; for effectiveness in preventing the multiplication of cancer cells: conclusion in words from the table; for Toxicity, ratio of died mice: number of mice died in the group during 14 days after transplantation; for Ratio of S/C: tumor weight sample/control, control 4.44 ± 1.02 g (I, IV), 1.36 ± 0.15 g (XI, VI), 1.52 ± 0.27 g (X)
Method: In addition to the foregoing examples of preparation processes, Compounds I, IV, VI, X and XI were evaluated with respect to their carcinostatic activities and acute toxicities by animal tests as follows.
Each of mice (ddY) having a body weight of about 25 g was subcutaneously innoculated with 3×10^6 of Ehrlich's tumor cells, and the thus inoculated mice were divided into 5 "sample" groups and 3 "control" groups, each group consisting of five or four mice. The thus treated mice belonging to the control groups were observed over a period of 14 days. On the other hand, each mouse belonging to the sample groups was given a 1 mg dose of Compounds I, IV, VI, XI or X by injection into the abdominal coelom every day during the period beginning after 24 hours from the innoculation of the tumor cells, and as indicated in the table below.
At the end of the 14-day period following the above-mentioned innoculation of the tumor cells, the tumor tissues of each mouse were taken out and weighed, so that comparison could be made between the weights of the tumor tissues taken from the sample groups and the control groups. Further in the table, "Toxicity" is expressed by the number of mice died in the group during the 14-day period following the transplantation of the cancer cells and "Evaluation" is based on the ratios of S/C in percentages and expressed by "++" when the percentage is 0-25%, "+" when the percentage is 26-50%, and "±" when the percentage is 51-75%.

[2] = Stability of the compound; assay type: physicochemical

Structure (SMILES)	LD50 [1]	Weight of tumor tissues in the sample group (S) (Ehrlich's tumor cells)	Evaluation (Ehrlich's tumor cells)	effectiveness in preventing the multiplication of cancer cells (Ehrlich's tumor cells)	Toxicity, ratio of died mice (Ehrlich's tumor cells)	Ratio of S/C (Ehrlich's tumor cells)	stability [2]
N#Cc1ncnc2c1cnn2-c1ccccc1 [Compound I, 1-phenyl-1H-pyrazolo[3,4-d]pyrimidine-4-carbonitrile]	100 mg/kg	0.43 ± 0.40 g	++ (the percentage is 0-25%)	very effective in preventing the multiplication of cancer cells	1/5	9.7%	stable
NC(=NO)c1ncnc2c1cnn2-c1ccccc1 [Compound VI, 1-phenyl-1H-pyrazolo[3,4-d]pyrimidine-4-carboxamidoxime]	–	0.43 ± 0.15 g	+ (the percentage is 26-50%)	effective in preventing the multiplication of cancer cells	0/4	31.6%	–
NC(=S)c1ncnc2c1cnn2-c1ccccc1 [Compound XI, 1-phenyl-1H-pyrazolo[3,4-d]pyrimidine-4-thiocarboxamide]	–	0.63 ± 0.08 g	+ (the percentage is 26-50%)	effective in preventing the multiplication of cancer cells	0/4	46.3%	–
NC(=O)c1ncnc2c1cnn2-c1ccccc1 [Compound IV, 1-phenyl-1H-pyrazolo[3,4-d]pyrimidine-4-carboxamide]	–	3.05 ± 1.40 g	± (the percentage is 51-75%)	effective in preventing the multiplication of cancer cells	0/5	68.7%	–
O=C(O)c1ncnc2c1cnn2-c1ccccc1 [Compound X, 1-phenyl-1H-pyrazolo[3,4-d]pyrimidine-4-carboxylic acid]	–	1.14 ± 0.27 g	± (the percentage is 51-75%)	effective in preventing the multiplication of cancer cells	0/4	75.0%	–
